Assay results as given in US11319303B2 (WIGEN BIOMEDICINE TECHNOLOGY (SHANGHAI) CO., LTD., priority 2017, dated 2022).
Structures can show the parent of a compound that is named as a salt.

Target: LC3B (Homo sapiens, UniProt Q9GZQ8)
Test: Fluorescence Polarization (FP) Assay: displacement of FITC-labeled peptide from GST-LC3B
Assay type: binding
Settings: Fluorescence Polarization assay; GST-LC3B 180 nM, FITC-labeled peptide 18 nM, 25° C.; read-out: IC50
Procedure: The compounds of the present invention for regulating the autophagy-related protein LC3B were tested by Fluorescence Polarization (FP) Assay.
Fluorescence Polarization (FP) Assay Test

`O=C1CC(c2ccccc2)CC(=O)C1=CN[C@@H](Cc1ccccc1)C(=O)OCc1ccccc1` (stereo partly drawn) [Compound 125, benzyl ((2,6-dioxo-4-phenylcyclo-hexylidene)methyl)-L-phenylalaninate] and `O=C1CC(c2ccccc2)CC(=O)C1=CNCCc1c[nH]c2ccccc12` (stereo not drawn) [Compound 135, 2-(((2-(1H-indol-3-yl)ethyl)amino)methylene)-5-phenylcyclo-hexane-1,3-dione] fall in the same range of IC50: 100 to 1000 µM for the first, 100 to 1000 µM for the second.

First: COc1ccc(NC=C2C(=O)CC(c3ccccc3)CC2=O)cn1 (stereo not drawn) [Compound 147, 2-(((6-methoxypyridin-3-yl)amino)methylene)-5-phenylcyclo-hexane-1,3-dione]
Second: NCCNC=C1C(=O)CC(c2ccccc2)CC1=O (stereo not drawn) [Compound 175, 2-(((2-aminoethyl)amino)methylene)-5-phenylcyclo-hexane-1,3-dione hydrochloride]
The IC50 of the first is higher: 15 to 100 µM for the first, 3 to 15 µM for the second. The second is the more potent here.

Compared with `O=C1CC(c2cccc3[nH]cc(C4CC4)c23)CC(=O)C1=CNCCN1CCN(CCO)CC1` (stereo not drawn) [Compound 185, 5-(3-cyclopropyl-1H-indol-4-yl)-2-(((2-(4-(2-hydroxyethyl)piperazin-1-yl)ethyl)amino)methylene) cyclohexane-1,3-dione], `Cc1cccc2[nH]cc(C3CC(=O)C(=CNCCN4CCN(CCO)CC4)C(=O)C3)c12` (stereo not drawn) [Compound 184, 2-(((2-(4-(2-hydroxyethyl)piperazin-1-yl)ethyl)amino)methylene)-5-(4-methyl-1H-indol-3-yl)cyclohexane-1,3-dione] is higher in IC50: < 3 µM for the first, 100 to 1000 µM for the second. The first is the more potent here.

Compared with `O=C1CC(c2ccc(O)cc2)CC(=O)C1=CNCCN1CCN(CCO)CC1` (stereo not drawn) [Compound 40, 2-(((2-(4-(2-hydroxyethyl)piperazin-1-yl)ethyl)amino)methylene)-5-(4-hydroxyphenyl) cyclohexane-1,3-dione], `N#Cc1ccc(C2CC(=O)C(=CNCCN3CCN(CCO)CC3)C(=O)C2)cc1` (stereo not drawn) [Compound 51, 2-(((2-(4-(2-hydroxyethyl)piperazin-1-yl)ethyl)amino)methylene)-5-(4-(cyano)phenyl) cyclohexane-1,3-dione] is higher in IC50: < 3 µM for the first, 15 to 100 µM for the second. The first is the more potent here.

Compared with `Nc1nc2c(C3CC(=O)C(=CNCCN4CCN(CCO)CC4)C(=O)C3)cccc2s1` (stereo not drawn) [Compound 85, 5-(2-aminobenzo[d]thiazol-4-yl)-2-(((2-(4-(2-hydroxyethyl)piperazin-1-yl)ethyl)amino)methylene)cyclohexane-1,3-dione], `O=C1CC(c2cccc3[nH]ncc23)CC(=O)C1=CNCCN1CCN(CCO)CC1` (stereo not drawn) [Compound 93, 2-(((2-(4-(2-hydroxyethyl)piperazin-1-yl)ethyl)amino)methylene)-5-(1H-indazol-4-yl)cyclohexane-1,3-dione] is lower in IC50: 15 to 100 µM for the first, 3 to 15 µM for the second.

`CN(C)CCNC=C1C(=O)CC(c2cc(Cl)ccc2F)CC1=O` (stereo not drawn) [Compound 390, 5-(5-chloro-2-fluorophenyl)-2-(((2-(dimethylamino)ethyl)amino)methylene) cyclohexane-1,3-dione] and `CN(C)CCNC=C1C(=O)CC(c2cc(F)ccc2F)CC1=O` (stereo not drawn) [Compound 302, 5-(2,5-difluorophenyl)-2-(((2-(dimethylamino)ethyl)amino)methylene) cyclohexane-1,3-dione] cannot be ordered by IC50: < 3 µM for the first, < 3 µM for the second.

`CN(C)CCNC=C1C(=O)CC(c2c(F)cccc2Cl)CC1=O` (stereo not drawn) [Compound 361, 5-(2-chloro-6-fluorophenyl)-2-(((2-(dimethylamino)ethyl)amino)methylene) cyclohexane-1,3-dione] and `CN(C)CCNC=C1C(=O)CC(c2ccc(Br)s2)CC1=O` (stereo not drawn) [Compound 366, 5-(5-bromothiophen-2-yl)-2-(((2-(dimethylamino)ethyl)amino)methylene) cyclohexane-1,3-dione] cannot be ordered by IC50: < 3 µM for the first, < 3 µM for the second.

`O=C1CC(c2ccc(-c3nccs3)cc2)CC(=O)C1=CNCCN1CCN(CCO)CC1` (stereo not drawn) [Compound 81, 2-(((2-(4-(2-hydroxyethyl)piperazin-1-yl)ethyl)amino)methylene)-5-(4-(thiazol-2-yl)phenyl) cyclohexane-1,3-dione] and `O=C1CC(c2ccc(N3CCOCC3)cc2)CC(=O)C1=CNCCN1CCN(CCO)CC1` (stereo not drawn) [Compound 35, 2-(((2-(4-(2-hydroxyethyl)piperazin-1-yl)ethyl)amino)methylene)-5-(4-morpholinophenyl) cyclohexane-1,3-dione] fall in the same range of IC50: 15 to 100 µM for the first, 15 to 100 µM for the second.

Compared with `O=C(CO)C1C(=O)CC(c2ccccc2)CC1=O` (stereo not drawn) [Compound 112, 2-(hydroacetyl)-5-pheyl-cyclohexane-1,3-dione], `O=C1CC(c2ccccc2)C(F)(F)C(=O)/C1=C/O` (stereo not drawn) [Compound 452, 2-(hydroxymethylene)-4,4-difluoro-5-(phenyl)cyclohexane-1,3-dione] is lower in IC50: 15 to 100 µM for the first, 3 to 15 µM for the second.

`O=C1CC(c2cccc3[nH]ccc23)CC(=O)C1=CNCCN1CCN(CCO)CC1` (stereo not drawn) [Compound 68, 2-(((2-(4-(2-hydroxyethyl)piperazin-1-yl)ethyl)amino)methylene)-5-(1H-indol-4-yl) cyclohexane-1,3-dione] and `O=C1CC(c2ccccc2-c2c(Cl)cccc2Cl)CC(=O)C1=CNCCN1CCN(CCO)CC1` (stereo not drawn) [Compound 406, 5-(2′,6′-dichloro-[1,1′-biphenyl]-2-yl)-2-(((2-(4-(2-ethoxyl)piperazin-1-yl)ethyl)amino)methylene) cyclohexane-1,3-dione] cannot be ordered by IC50: < 3 µM for the first, < 3 µM for the second.

`CN(C)C=C1C(=O)CC(c2ccc3[nH]ccc3c2)CC1=O` (stereo not drawn) [Compound 281, 2-((dimethylamino)methylene)-5-(1H-indol-5-yl)cyclohexane-1,3-dione] and `CN(C)C=C1C(=O)CC(c2ccc3[nH]ncc3c2)CC1=O` (stereo not drawn) [Compound 259, 2-((dimethylamino)methylene)-5-(1H-indazol-5-yl)cyclohexane-1,3-dione] cannot be ordered by IC50: < 3 µM for the first, < 3 µM for the second.

First: O=C1CC(c2ccccc2)CC(=O)C1=C(NCCN1CCN(CCO)CC1)c1ccccc1 (stereo not drawn) [Compound 110, 2-(((2-(4-(2-hydroxyethyl)piperazin-1-yl)ethyl)amino)(phenyl)methylene)-5-phenylcyclohexane-1,3-dione]
Second: O=C1CC(c2ccccc2)OC(=O)C1=CNCCN1CCN(CCO)CC1 (stereo not drawn) [Compound 95, 3-(((2-(4-(2-hydroxyethyl)piperazin-1-yl)ethyl)amino)methylene)-6-phenyldihydro-2H-pyran-2,4(3H)-dione]
The IC50 of the first is higher: 100 to 1000 µM for the first, 15 to 100 µM for the second.

First: COc1ccc2c(c1)C(=O)/C(=C/NCCN1CCN(CCO)CC1)C(=O)N2 [Compound 196, 3-(((2-(4-(2-hydroxyethyl)piperazin-1-yl)ethyl)amino)methylene)-6-methoxyquinoline-2,4(1H,3H)-dione]
Second: CC1(C)CC(=O)C(=CNCCN2CCN(CCO)CC2)C(=O)C1 [Compound 182, 2-(((2-(4-(2-hydroxyethyl)piperazin-1-yl)ethyl)amino)methylene)-5,5-dimethyl-cyclohexane-1,3-dione]
The IC50 of the first is lower: 3 to 15 µM for the first, 100 to 1000 µM for the second.

`Cc1ccc(NC(=O)CN2CCN(CCNC=C3C(=O)CC(c4ccccc4Br)CC3=O)CC2)cc1` (stereo not drawn) [Compound 372, 2-(4-(2-(((4-(2-bromophenyl)-2,6-dioxocyclo-hexylidene)methyl)amino)ethyl)piperazin-1-yl)-N-(p-tolyl) acetainide] and `CCOC(=O)C1C(=O)/C(=C\NCCN2CCN(CCO)CC2)C(=O)CC1c1ccccc1Br` (stereo not drawn) [Compound 191, ethyl-6-(2-bromophenyl)-3-(((2-(4-(2-hydroxyethyl)piperazin-1-yl)ethyl)amino)methylene)-2,4-dioxocyclohexane-1-carboxylate] cannot be ordered by IC50: < 3 µM for the first, < 3 µM for the second.

`CC1(C)O[C@@H]2[C@H](O1)[C@@H](C1CC(=O)C(=CNCCN3CCN(CCO)CC3)C(=O)C1)O[C@H]2n1cnc2c(N3CCOCC3)ncnc21` (stereo partly drawn) [Compound 30, 5-((3aR,4R,6R,6aR)-2,2-dimethyl-6-(6-morpholino-9H-purin-9-yl)tetrahydrofuro[3,4-d][1,3]dioxol-4-yl)-2-(((2-(4-(2-hydroxyethyl)piperazin-1-yl)ethyl)amino)methylene) cyclohexane-1,3-dione] and `O=C1CC(c2ccc(OCCN3CCOCC3)nc2)CC(=O)C1=CNCCN1CCN(CCO)CC1` (stereo not drawn) [Compound 89, 2-(((2-(4-(2-hydroxyethyl)piperazin-1-yl)ethyl)amino)methylene)-5-(6-(2-morpholinoethoxy)pyridin-3-yl)cyclohexane-1,3-dione] fall in the same range of IC50: 100 to 1000 µM for the first, 100 to 1000 µM for the second.

Compared with `O=C1CC(c2cccc([N+](=O)[O-])c2)CC(=O)C1=CO` (stereo not drawn) [Compound 435, 2-(hydroxymethylene)-5-(3-nitrophenyl)cyclo-hexane-1,3-dione], `O=C1CC(c2cccc(Cl)c2)CC(=O)C1=CO` (stereo not drawn) [Compound 419, 2-(hydroxymethylene)-5-(3-chlorophenyl)cyclo-hexane-1,3-dione] is lower in IC50: 3 to 15 µM for the first, < 3 µM for the second. The second is the more potent here.

`CN(C)C=C1C(=O)CC(c2n[nH]c3ccccc23)CC1=O` (stereo not drawn) [Compound 286, 2-((dimethylamino)methylene)-5-(1H-indazol-3-yl)cyclohexane-1,3-dione] and `COc1ccc(C2CC(=O)C(=CN(C)C)C(=O)C2)cc1` (stereo not drawn) [Compound 241, 2-((dimethylamino)methylene)-5-(4-methoxyphenyl) cyclohexane-1,3-dione] cannot be ordered by IC50: < 3 µM for the first, < 3 µM for the second.

`CN(C)CCNC=C1C(=O)CC(c2ccc([N+](=O)[O-])cc2)CC1=O` (stereo not drawn) [Compound 340, 2-(((2-(dimethylamino)ethyl)amino)methylene)-5-(4-nitrophenyl) cyclohexane-1,3-dione] and `COc1ccccc1C1CC(=O)C(=CNCCN(C)C)C(=O)C1` (stereo not drawn) [Compound 310, 2-(((2-(dimethylamino)ethyl)amino)methylene)-5-(2-methoxyphenyl) cyclohexane-1,3-dione] cannot be ordered by IC50: < 3 µM for the first, < 3 µM for the second.

First: O=C1CC(C(F)(F)F)CC(=O)C1=CNCCN1CCN(CCO)CC1 (stereo not drawn) [Compound 94, 2-(((2-(4-(2-hydroxyethyl)piperazin-1-yl)ethyl)amino)methylene)-5-(trifluoromethyl) cyclohexane-1,3-dione]
Second: O=C1CC(c2ccsc2)CC(=O)C1=CO (stereo not drawn) [Compound 457, 2-(hydroxy-methylene)-5-(3-thiophen)cyclo-hexane-1,3-dione sodium salt]
The IC50 of the first is higher: 15 to 100 µM for the first, 3 to 15 µM for the second. The second is the more potent here.

`O=C1CC(c2cccc3[nH]ccc23)CC(=O)C1=CO` (stereo not drawn) [Compound 461, 2-(hydroxy-methylene)-5-(1H-indol-4-yl)cyclo-hexane-1,3-dione potassium salt] was tested, and the IC50 was < 3 µM.
